Article PMC11926245, “Structural recognition and stabilization of tyrosine hydroxylase by the J-domain protein DNAJC12” (Nature Communications, 2025)

Tests used:
TH (TH-WT, hTH1) [1] = molecular target: T1, TH (TH-WT, hTH1) (Homo sapiens, UniProt P07101); assay: differential scanning fluorimetry (SYPRO Orange); type: binding; conditions: 0.23 µM TH tetramer, 9 µM DA, ferrous ammonium sulfate; stabilization
T1 construct: full-length wild-type (C-terminal residue 497), expressed in E. coli as HisMBP fusion from pETMBP1a/hTH1, tags cut with TEV protease
T1 sequence (P07101 1-497 isoform P07101-3): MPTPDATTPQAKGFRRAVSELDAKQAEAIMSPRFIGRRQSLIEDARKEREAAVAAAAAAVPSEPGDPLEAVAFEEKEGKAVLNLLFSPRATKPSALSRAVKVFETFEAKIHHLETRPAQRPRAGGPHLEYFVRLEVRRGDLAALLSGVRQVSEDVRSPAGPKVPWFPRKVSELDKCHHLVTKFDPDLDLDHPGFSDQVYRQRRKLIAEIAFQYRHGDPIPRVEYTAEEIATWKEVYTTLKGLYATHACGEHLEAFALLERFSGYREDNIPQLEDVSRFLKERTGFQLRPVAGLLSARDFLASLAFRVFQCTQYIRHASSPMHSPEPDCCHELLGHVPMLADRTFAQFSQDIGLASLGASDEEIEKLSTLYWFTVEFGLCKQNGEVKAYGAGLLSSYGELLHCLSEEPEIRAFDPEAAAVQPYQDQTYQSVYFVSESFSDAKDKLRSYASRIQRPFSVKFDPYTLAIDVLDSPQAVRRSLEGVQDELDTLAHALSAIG

TH:DNAJC12 complex [2] = molecular target: T2, TH:DNAJC12 complex (Homo sapiens, UniProt P07101); assay: cryo-EM 3D reconstruction ([…] Å map); type: binding; conditions: Fe(III)-catecholate complex; map EMD-18289, no PDB model deposited; regulatory helix 39-58 density at active sites
T2 construct: both full-length wild-type, each expressed in E. coli as HisMBP fusion, tags cut with TEV protease; with DnaJ homolog subfamily C member 12
T2 sequence (P07101 1-497 isoform P07101-3): as above
T2 sequence (Q9UKB3 whole entry partner, the tested form may be a part): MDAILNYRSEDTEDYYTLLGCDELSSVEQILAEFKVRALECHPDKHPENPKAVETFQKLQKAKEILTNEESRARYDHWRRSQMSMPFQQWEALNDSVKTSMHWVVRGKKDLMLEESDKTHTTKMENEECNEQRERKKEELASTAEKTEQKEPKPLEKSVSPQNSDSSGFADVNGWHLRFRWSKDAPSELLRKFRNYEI

TH:DNAJC12 complex [3] = molecular target: T2, TH:DNAJC12 complex; assay: differential scanning fluorimetry (SYPRO Orange); type: binding; conditions: 0.23 µM TH:DNAJC12 complex, 9 µM DA, ferrous ammonium sulfate; stabilization
TH:DNAJC12 complex [4] = molecular target: T2, TH:DNAJC12 complex; assay: TH activity, L-Dopa quantified by HPLC with fluorescence detection; type: biochemical
TH (TH-WT, hTH1) [5] = molecular target: T1, TH (TH-WT, hTH1); assay: as above; type: biochemical

IC50 (TH:DNAJC12 complex [4]): 0.356 ± 0.103 µM
IC50 (TH (TH-WT, hTH1) [5]): 0.363 ± 0.082 µM
SMILES: NCCc1ccc(O)c(O)c1 [dopamine]
Tm (TH (TH-WT, hTH1) [1]): adding equimolar amounts of DA (per TH subunit) increased the Tm of TH
cryo-EM 3D reconstruction (5.0 Å map) (TH:DNAJC12 complex [2]): 3D reconstruction of TH:DNAJC12 in the presence of the feedback inhibitor DA (TH(DA):DNAJC12)
Tm (TH:DNAJC12 complex [3]): we also observed a Tm increase for the TH:DNAJC12 complex in the presence of DA
